According to PubChem BioAssay (NCI):
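Five compound concentrations were applied to cells in 96-well plates for 48 hours; endpoints were derived by simple linear interpolation of the resulting dose-response curve. TGI denotes the concentration required for complete inhibition of growth.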

What was measured:
Assay in all cases: NCI anticancer screen, dose series, 48 h
HS 578T breast = test system: HS 578T breast
COLO 205 colon = test system: COLO 205 colon
NCI-H226 lung = test system: NCI-H226 lung
MCF7 breast = test system: MCF7 breast
RXF 393 renal = test system: RXF 393 renal
U251 CNS = test system: U251 CNS
HT29 colon = test system: HT29 colon
M14 melanoma = test system: M14 melanoma
SK-MEL-5 melanoma = test system: SK-MEL-5 melanoma
A498 renal = test system: A498 renal
K-562 leukemia = test system: K-562 leukemia
OVCAR-4 ovarian = test system: OVCAR-4 ovarian
SNB-19 CNS = test system: SNB-19 CNS
HCT-15 colon = test system: HCT-15 colon
HCC-2998 colon = test system: HCC-2998 colon
SNB-75 CNS = test system: SNB-75 CNS
SN12C renal = test system: SN12C renal
DU-145 prostate = test system: DU-145 prostate
CCRF-CEM leukemia = test system: CCRF-CEM leukemia
SW-620 colon = test system: SW-620 colon
SF-539 CNS = test system: SF-539 CNS
NCI-H522 lung = test system: NCI-H522 lung
UO-31 renal = test system: UO-31 renal
SK-MEL-2 melanoma = test system: SK-MEL-2 melanoma
MOLT-4 leukemia = test system: MOLT-4 leukemia
UACC-257 melanoma = test system: UACC-257 melanoma
BT-549 breast = test system: BT-549 breast
HCT-116 colon = test system: HCT-116 colon
SF-268 CNS = test system: SF-268 CNS
786-0 renal = test system: 786-0 renal
CAKI-1 renal = test system: CAKI-1 renal
KM12 colon = test system: KM12 colon
OVCAR-8 ovarian = test system: OVCAR-8 ovarian
OVCAR-5 ovarian = test system: OVCAR-5 ovarian
SK-OV-3 ovarian = test system: SK-OV-3 ovarian
MDA-MB-435 = test system: MDA-MB-435
SK-MEL-28 melanoma = test system: SK-MEL-28 melanoma
RPMI-8226 leukemia = test system: RPMI-8226 leukemia
MALME-3M melanoma = test system: MALME-3M melanoma
A549 NSCLC = test system: A549 NSCLC
EKVX NSCLC = test system: EKVX NSCLC
SR leukemia = test system: SR leukemia
TK-10 renal = test system: TK-10 renal
UACC-62 melanoma = test system: UACC-62 melanoma
NCI-H460 lung = test system: NCI-H460 lung
MDA-MB-231 breast = test system: MDA-MB-231 breast
MDA-N = test system: MDA-N
OVCAR-3 ovarian = test system: OVCAR-3 ovarian
PC-3 prostate = test system: PC-3 prostate
LOX IMVI melanoma = test system: LOX IMVI melanoma
NCI/ADR-RES ovarian = test system: NCI/ADR-RES ovarian
T-47D breast = test system: T-47D breast
NCI-H23 lung = test system: NCI-H23 lung
HL-60(TB) leukemia = test system: HL-60(TB) leukemia
HOP-62 NSCLC = test system: HOP-62 NSCLC
IGROV1 ovarian = test system: IGROV1 ovarian
ACHN renal = test system: ACHN renal
SF-295 CNS = test system: SF-295 CNS
HOP-92 NSCLC = test system: HOP-92 NSCLC

Compound: O=c1[nH][nH]c(=O)n1Cc1cccc(Cn2c(=O)[nH][nH]c2=O)c1
- TGI (HS 578T breast): > 100 µM
- TGI (COLO 205 colon): > 100 µM
- TGI (NCI-H226 lung): > 100 µM
- TGI (MCF7 breast): > 100 µM
- TGI (RXF 393 renal): > 100 µM
- TGI (U251 CNS): > 100 µM
- TGI (HT29 colon): > 100 µM
- TGI (M14 melanoma): > 100 µM
- TGI (SK-MEL-5 melanoma): > 100 µM
- TGI (A498 renal): > 100 µM
- TGI (K-562 leukemia): > 100 µM
- TGI (OVCAR-4 ovarian): > 100 µM
- TGI (SNB-19 CNS): > 100 µM
- TGI (HCT-15 colon): > 100 µM
- TGI (HCC-2998 colon): > 100 µM
- TGI (SNB-75 CNS): > 100 µM
- TGI (SN12C renal): > 100 µM
- TGI (DU-145 prostate): > 100 µM
- TGI (CCRF-CEM leukemia): > 100 µM
- TGI (SW-620 colon): > 100 µM
- TGI (SF-539 CNS): > 100 µM
- TGI (NCI-H522 lung): > 100 µM
- TGI (UO-31 renal): > 100 µM
- TGI (SK-MEL-2 melanoma): > 100 µM
- TGI (MOLT-4 leukemia): > 100 µM
- TGI (UACC-257 melanoma): > 100 µM
- TGI (BT-549 breast): > 100 µM
- TGI (HCT-116 colon): > 100 µM
- TGI (SF-268 CNS): > 100 µM
- TGI (786-0 renal): > 100 µM
- TGI (CAKI-1 renal): > 100 µM
- TGI (KM12 colon): > 100 µM
- TGI (OVCAR-8 ovarian): > 100 µM
- TGI (OVCAR-5 ovarian): > 100 µM
- TGI (SK-OV-3 ovarian): > 100 µM
- TGI (MDA-MB-435): > 100 µM
- TGI (SK-MEL-28 melanoma): > 100 µM
- TGI (RPMI-8226 leukemia): > 100 µM
- TGI (MALME-3M melanoma): > 100 µM
- TGI (A549 NSCLC): > 100 µM
- TGI (EKVX NSCLC): > 100 µM
- TGI (SR leukemia): > 100 µM
- TGI (TK-10 renal): > 100 µM
- TGI (UACC-62 melanoma): > 100 µM
- TGI (NCI-H460 lung): > 100 µM
- TGI (MDA-MB-231 breast): > 100 µM
- TGI (MDA-N): > 100 µM
- TGI (OVCAR-3 ovarian): > 100 µM
- TGI (PC-3 prostate): > 100 µM
- TGI (LOX IMVI melanoma): > 100 µM
- TGI (NCI/ADR-RES ovarian): > 100 µM
- TGI (T-47D breast): > 100 µM
- TGI (NCI-H23 lung): > 100 µM
- TGI (HL-60(TB) leukemia): > 100 µM

Compound: O=C(CN=C(CN(c1ccccc1)c1ccccc1)Oc1c(Cl)cc(Cl)cc1Cl)N1c2ccccc2Sc2ccccc21
- TGI (HS 578T breast): > 100 µM
- TGI (COLO 205 colon): > 100 µM
- TGI (NCI-H226 lung): > 100 µM
- TGI (MCF7 breast): > 100 µM
- TGI (RXF 393 renal): 27.4 µM
- TGI (U251 CNS): > 100 µM
- TGI (HT29 colon): > 100 µM
- TGI (M14 melanoma): > 100 µM
- TGI (SK-MEL-5 melanoma): > 100 µM
- TGI (OVCAR-4 ovarian): > 100 µM
- TGI (SNB-19 CNS): > 100 µM
- TGI (HCT-15 colon): > 100 µM
- TGI (HCC-2998 colon): > 100 µM
- TGI (SNB-75 CNS): > 100 µM
- TGI (SN12C renal): > 100 µM
- TGI (DU-145 prostate): > 100 µM
- TGI (CCRF-CEM leukemia): > 100 µM
- TGI (SW-620 colon): > 100 µM
- TGI (HOP-62 NSCLC): > 100 µM
- TGI (SF-539 CNS): > 100 µM
- TGI (NCI-H522 lung): > 100 µM
- TGI (IGROV1 ovarian): > 100 µM
- TGI (MOLT-4 leukemia): > 100 µM
- TGI (UACC-257 melanoma): > 100 µM
- TGI (BT-549 breast): > 100 µM
- TGI (HCT-116 colon): > 100 µM
- TGI (SF-268 CNS): > 100 µM
- TGI (786-0 renal): > 100 µM
- TGI (ACHN renal): > 100 µM
- TGI (KM12 colon): > 100 µM
- TGI (OVCAR-8 ovarian): > 100 µM
- TGI (OVCAR-5 ovarian): > 100 µM
- TGI (SK-OV-3 ovarian): > 100 µM
- TGI (MDA-MB-435): > 100 µM
- TGI (SK-MEL-28 melanoma): > 100 µM
- TGI (RPMI-8226 leukemia): > 100 µM
- TGI (MALME-3M melanoma): > 100 µM
- TGI (A549 NSCLC): > 100 µM
- TGI (EKVX NSCLC): > 100 µM
- TGI (SR leukemia): > 100 µM
- TGI (TK-10 renal): > 100 µM
- TGI (UACC-62 melanoma): > 100 µM
- TGI (NCI-H460 lung): > 100 µM
- TGI (SF-295 CNS): > 100 µM
- TGI (MDA-MB-231 breast): > 100 µM
- TGI (MDA-N): > 100 µM
- TGI (OVCAR-3 ovarian): > 100 µM
- TGI (PC-3 prostate): > 100 µM
- TGI (NCI/ADR-RES ovarian): > 100 µM
- TGI (T-47D breast): > 100 µM
- TGI (HOP-92 NSCLC): 57.2 µM
- TGI (NCI-H23 lung): > 100 µM
- TGI (HL-60(TB) leukemia): > 100 µM

Compound: COc1ccc(Nc2nn3c(=O)c4c(C)c(C)sc4nc3s2)cc1
- TGI (HS 578T breast): > 100 µM
- TGI (COLO 205 colon): > 100 µM
- TGI (NCI-H226 lung): > 100 µM
- TGI (MCF7 breast): > 100 µM
- TGI (RXF 393 renal): 36.7 µM
- TGI (U251 CNS): > 100 µM
- TGI (HT29 colon): > 100 µM
- TGI (M14 melanoma): > 100 µM
- TGI (SK-MEL-5 melanoma): > 100 µM
- TGI (K-562 leukemia): > 100 µM
- TGI (OVCAR-4 ovarian): 48.3 µM
- TGI (SNB-19 CNS): > 100 µM
- TGI (HCT-15 colon): > 100 µM
- TGI (SNB-75 CNS): 49.8 µM
- TGI (SN12C renal): > 100 µM
- TGI (DU-145 prostate): 34.5 µM
- TGI (CCRF-CEM leukemia): > 100 µM
- TGI (SW-620 colon): > 100 µM
- TGI (HOP-62 NSCLC): 76.8 µM
- TGI (SF-539 CNS): > 100 µM
- TGI (NCI-H522 lung): 67.1 µM
- TGI (IGROV1 ovarian): > 100 µM
- TGI (UO-31 renal): 35.3 µM
- TGI (SK-MEL-2 melanoma): > 100 µM
- TGI (MOLT-4 leukemia): > 100 µM
- TGI (UACC-257 melanoma): > 100 µM
- TGI (BT-549 breast): > 100 µM
- TGI (HCT-116 colon): 60.5 µM
- TGI (SF-268 CNS): > 100 µM
- TGI (786-0 renal): 51 µM
- TGI (ACHN renal): > 100 µM
- TGI (CAKI-1 renal): > 100 µM
- TGI (KM12 colon): > 100 µM
- TGI (OVCAR-8 ovarian): > 100 µM
- TGI (OVCAR-5 ovarian): > 100 µM
- TGI (SK-OV-3 ovarian): > 100 µM
- TGI (MDA-MB-435): > 100 µM
- TGI (SK-MEL-28 melanoma): > 100 µM
- TGI (MALME-3M melanoma): 89 µM
- TGI (A549 NSCLC): 38.5 µM
- TGI (SR leukemia): > 100 µM
- TGI (TK-10 renal): 78.8 µM
- TGI (UACC-62 melanoma): > 100 µM
- TGI (NCI-H460 lung): > 100 µM
- TGI (SF-295 CNS): > 100 µM
- TGI (MDA-MB-231 breast): > 100 µM
- TGI (MDA-N): > 100 µM
- TGI (OVCAR-3 ovarian): 78.8 µM
- TGI (PC-3 prostate): > 100 µM
- TGI (LOX IMVI melanoma): > 100 µM
- TGI (NCI/ADR-RES ovarian): > 100 µM
- TGI (T-47D breast): 63.5 µM
- TGI (HOP-92 NSCLC): 69.2 µM
- TGI (NCI-H23 lung): 46.9 µM
- TGI (HL-60(TB) leukemia): > 100 µM
